Data from patent US20090081120A1, “Methods and Compositions for Increasing Patient Tolerability During Myocardial Imaging Methods” (CV Therapeutics, Inc., priority 2006, published 2009).

Columns and labels:
normal subjects [1] = test: Safety and tolerability of regadenoson with and without prior caffeine; type: in vivo, human
Description: (§1) 15O water was used as the radionuclide in the PET scans. There was a 1- to 14-day washout period between dosing days. Blood samples and measures of safety were collected until 120 minutes after study drug administration.
Safety measures included adverse events (AEs), serious adverse events, vital signs (HR and BP), ECG, concomitant medications, and a tolerability questionnaire. All available data from subjects who received the single dose of regadenoson were to be included in the statistical summaries.
ECG intervals and changes from baseline values in ECG intervals were to be presented, as were occurrences of rhythm or conduction abnormalities. Concomitant medication usage was to be summarized.
Tolerability questionnaire responses were to be analyzed using the Wilcoxen rank sum test (“How did you feel?” question) and the exact Cochran-Mantel-Haenszel test (Day 2—only question “How did this test compare to the first test?”).

normal subjects [2] = test: Crossover PET study of regadenoson-induced myocardial blood flow (coronary flow reserve) with caffeine or placebo; type: in vivo, human
Description: as §1
Open-label study drug was supplied as sterile stock solution in single-use vials each containing 5 mL of regadenoson (0.08 mg/mL). Regadenoson, 400 μg, was administered as a rapid bolus, through an iv catheter over approximately 10 seconds, followed immediately by a 5 mL saline flush.
On each of 2 study days, subjects received a single dose of regadenoson, administered intravenously as a rapid (10-second) bolus of 5 mL, followed by a 5 mL saline flush. There was a 1- to 14-day washout period between doses.
The CVT tracking number for the placebo capsules was 1341 (Leg 2).
The primary efficacy measure was the log coronary flow reserve (CFR), which is the ratio of stress MBF after regadenoson dosing to the resting MBF.
The data were also to be analyzed using Wilcoxon's rank-sum test.

conscious dogs [3] = test: Regadenoson-induced changes in hemodynamics (MAP, HR, LVSP, LV dP/dtMax) with and without caffeine in conscious dogs; type: in vivo, dog; conditions: for increase in peak HR from baseline: p<0.05 vs control
Description: (§2) Sixteen chronically instrumented male mongrel dogs weighing from 22-30 kg were used in the study. The animal protocol was approved by the Institutional Animal Care and Use Committee of New York Medical College and conforms to the Guide for the Care and Use of Laboratory Animal by the United States National Institutes of Health.
(§3) Dogs were sedated with acepromazine (0.3 mg/kg, IM) and anesthetized with pentobarbital sodium (25 mg/kg, IV). After intubation, dogs were artificially ventilated with room air. A thoracotomy was made in the fifth intercostal space using sterile techniques. A Tygon catheter (Cardiovascular Instruments, Wakefield, Mass.) was inserted into the descending thoracic aorta and another one was inserted into the left atrium. In 9 dogs, an ultrasound flow transducer (Transonic Systems, Ithaca, N.Y.) was placed around the left circumflex coronary artery. A solid-state pressure gauge (P6.5, Konisberg Instruments, Pasadena, Calif.) was placed into the left ventricle through the apex. The chest was closed in layers. The catheters and wires were tunneled subcutaneously and externalized through the skin at the back of the dog's neck. Dogs were allowed to recover from the surgery before experiments were performed, and were trained to lie on a table.
(§4) Phasic arterial pressure was measured by connecting the aortic catheter to a strain gauge transducer (P23 ID, LDS Test and Measurement, Valley View, Ohio). Left ventricular pressures were measured by the solid pressure gauge. CBF (mL/min) was measured from an ultrasound flow transducer using a Transonic flowmeter (T206, Transonic Systems, Ithaca, N.Y.). Two indices were used to describe the Regadenoson-induced coronary vasodilation: 1) the maximum increase in CBF and 2) the duration of the 2-fold increase in CBF (the period of time that CBF was elevated to a level ≧2-fold of baseline CBF). All pressure and flow data were acquired and analyzed using a Ponemah System (Version 3.30 or 4.20, LDS Test and Measurement, Valley View, Ohio). MAP and HR were calculated from phasic blood pressure, and LV dP/dtMax was calculated from the left ventricular systolic pressure.
(§5) On the day of an experiment, a dog was placed on a table, where it lay quietly during the experiment. A catheter was inserted into a peripheral vein in the leg and attached to an infusion line to administer drugs without disturbing the dog. The experiment was begun after MAP, HR and CBF were stable.
(§6) Regadenoson was supplied by CV Therapeutics, Inc. as a sterile stock solution (Lot#: 803604, 0.08 mg/mL), that was made using 15% Propylene Glycol (pH 7) and was diluted in normal saline before injection.
The statistical significance of a difference between the value of a parameter at baseline and at the indicated time point after drug administration was determined using a One-Way Repeated Measures ANOVA followed by Tukey's Test. […] Results with p<0.05 were considered to be significant. A computer-based software package (SigmaStat 2.03) was used for statistical analysis. All data are presented as Mean±SEM.

[4] = Plasma regadenoson concentrations after IV injection in conscious dogs; conditions: effect of caffeine at 1, 2, 4 or 10 mg/kg
Description: Each dog received an IV injection of 5 μg/kg of Regadenoson. […] LVSP, LV dP/dtMax, MAP, HR and CBF were recorded continuously. Blood samples were taken from the left atrial catheter at 1, 3, 5, 15, 30, 45 and 60 min following injections of Regadenoson.

conscious dogs [5] = test: Regadenoson-induced coronary vasodilation (CBF) with and without caffeine in conscious dogs; type: in vivo, dog; conditions: for change of the maximum increase in CBF induced by Regadenoson vs control: p>0.05
Description: as §2, §3, §4, §5
In 4 dogs, two doses of Regadenoson (5 μg/kg, IV) were given 90 min apart (without blood sampling) to determine if there is tachyphylaxis of Regadenoson-induced coronary vasodilation.
as §6
The statistical significance of a difference between the value of a parameter at baseline and at the indicated time point after drug administration was determined using a One-Way Repeated Measures ANOVA followed by Tukey's Test. The statistical significance of a difference between responses to Regadenoson in the absence and presence of caffeine was determined using a Two-Way Repeated Measures ANOVA followed by Tukey's Test. Results with p<0.05 were considered to be significant. A computer-based software package (SigmaStat 2.03) was used for statistical analysis. All data are presented as Mean±SEM.

[6] = caffeine 200 mg po before regadenoson 400 μg IV
[7] = regadenoson 400 μg IV, caffeine 200 mg po
[8] = regadenoson 5 μg/kg IV in the presence of caffeine 1 mg/kg
[9] = regadenoson 5 μg/kg IV in the presence of caffeine 2 mg/kg
[10] = after regadenoson 400 μg IV dosing
[11] = regadenoson 400 μg IV, at any time, 25/43 subjects

Cn1c(=O)c2c(ncn2C)n(C)c1=O [Caffeine, caffeine]
effect of caffeine on the severity of AEs (normal subjects [1]; [6]): attenuated
overall incidence of AEs between the placebo and caffeine groups (normal subjects [1]; [6]): no difference
effect of caffeine on the HR increase caused by regadenoson (normal subjects [1]; caffeine 200 mg po before regadenoson 400 μg IV, p<0.001): attenuated
tolerability questionnaire: feeling after the caffeine test vs after the placebo test (normal subjects [1]; caffeine 200 mg po, regadenoson 400 μg IV, p<0.001): felt better
tolerability questionnaire: comfort during the test (normal subjects [1]; test with caffeine 200 mg po vs placebo, regadenoson 400 μg IV, p<0.001): felt more comfortable
change in CFR with caffeine (normal subjects [2]; caffeine 200 mg po vs placebo before regadenoson 400 μg IV): no change in CFR detected
change in CFR (printed: not ≧20%) (normal subjects [2]; caffeine 200 mg po vs placebo before regadenoson 400 μg IV, 95% confidence): < 20%
exponentiated lower limit of the 90% confidence interval for log CFR (caffeine versus placebo difference) (normal subjects [2]; [7]): 0.80
exponentiated lower limit of the 95% confidence interval for log CFR (caffeine versus placebo difference) (normal subjects [2]; [7]): 0.78
exponentiated upper limit of the 90% confidence interval for log CFR (caffeine versus placebo difference) (normal subjects [2]; [7]): 1.06
exponentiated upper limit of the 95% confidence interval for log CFR (caffeine versus placebo difference) (normal subjects [2]; [7]): 1.08
peak decrease in MAP from baseline (conscious dogs [3]; regadenoson 5 μg/kg IV in the presence of 4 mg/kg caffeine): 2±5%
decrease in LVSP from control (conscious dogs [3]; regadenoson 5 μg/kg IV in the presence of 4 mg/kg of caffeine, p>0.05): 1±5%
increase in MAP from baseline (conscious dogs [3]; regadenoson 5 μg/kg IV in the presence of 10 mg/cg caffeine, insignificant): 9±6%
increase in LVSP from control (conscious dogs [3]; regadenoson 5 μg/kg IV in the presence of 10 mg/kg caffeine, significant): 11±7%
decrease in LVSP from baseline (conscious dogs [3]; [8]): 9±3%
peak decrease in MAP from baseline (conscious dogs [3]; [8]): 13±2%
decrease in LVSP from baseline (conscious dogs [3]; [9]): 6±2%
peak decrease in MAP from baseline (conscious dogs [3]; [9]): 13±1%
increase in peak HR from baseline (conscious dogs [3]; [9]): 109±21%
increase in peak HR from baseline (conscious dogs [3]; regadenoson 5 μg/kg IV in the presence of caffeine 4 mg/kg): 79±20%
increase in peak HR from baseline (conscious dogs [3]; regadenoson 5 μg/kg IV in the presence of caffeine 10 mg/kg): 74±16%
Pharmacokinetic profiles of Regadenoson [4]: not changed
Baseline values of CBF before and after caffeine treatment (conscious dogs [5]; 45 min after 1, 2, 4, and 10 mg/kg caffeine): not significantly different
change of the maximum increase in CBF induced by Regadenoson vs control (conscious dogs [5]; regadenoson 5 μg/kg IV 45 min after caffeine 1 mg/kg IV): 2±3%
change of the maximum increase in CBF induced by Regadenoson vs control (conscious dogs [5]; regadenoson 5 μg/kg IV 45 min after caffeine 2 mg/kg IV): −0.7±3%
change of the maximum increase in CBF induced by Regadenoson vs control (conscious dogs [5]; regadenoson 5 μg/kg IV 45 min after caffeine 4 mg/kg IV): −16±5%
change of the maximum increase in CBF induced by Regadenoson vs control (conscious dogs [5]; regadenoson 5 μg/kg IV 45 min after caffeine 10 mg/kg IV): −13±8%

CNC(=O)c1cnn(-c2nc(N)c3ncn([C@@H]4O[C@H](CO)[C@@H](O)[C@H]4O)c3n2)c1 [Regadenoson, (1-{9-[(4S,2R,3R,5R)-3,4-dihydroxy-5-(hydroxymethyl)oxolan-2-yl]-6-aminopurin-2-yl}pyrazol-4-yl)-N-methylcarboxamide]
QTc prolongation (>500 msec and change of >60 msec) by ECG analysis, not reported as AE (normal subjects [1]; [10]): one subject
first degree AV block by ECG analysis, not reported as AE (normal subjects [1]; [10]): one subject
subjects with sensation of heaviness (normal subjects [1]; regadenoson 400 μg IV): 28%
subjects with paraesthesia (normal subjects [1]; regadenoson 400 μg IV, 8/43 subjects): 19%
subjects with headache (normal subjects [1]; regadenoson 400 μg IV, 12/43 subjects): 28%
subjects with flushing (normal subjects [1]; regadenoson 400 μg IV, 13/43 subjects): 30%
subjects with palpitations (normal subjects [1]; regadenoson 400 μg IV, 21/43 subjects): 49%
subjects with dyspnoea (normal subjects [1]; regadenoson 400 μg IV, 24/43 subjects): 56%
subjects with AEs: ear and labyrinth disorders (normal subjects [1]; regadenoson 400 μg IV, at any time, 1/43 subjects): 2%
subjects with AEs: gastrointestinal disorders (normal subjects [1]; regadenoson 400 μg IV, at any time, 2/43 subjects): 5%
subjects with AEs: general disorders and administration site conditions (normal subjects [1]; regadenoson 400 μg IV, at any time, 11/43 subjects): 26%
subjects with AEs: musculoskeletal and connective tissue disorders (normal subjects [1]; regadenoson 400 μg IV, at any time, 12/43 subjects): 28%
subjects with AEs: vascular disorders (normal subjects [1]; regadenoson 400 μg IV, at any time, 13/43 subjects): 30%
subjects with AEs: nervous system disorders (normal subjects [1]; regadenoson 400 μg IV, at any time, 18/43 subjects): 42%
subjects with AEs: cardiac disorders (normal subjects [1]; [11]): 58%
subjects with AEs: respiratory, thoracic and mediastinal disorders (normal subjects [1]; [11]): 58%
decrease in MAP (peak) from baseline (conscious dogs [3]; regadenoson 5 μg/kg IV in the absence of caffeine, baseline 102±2 mm Hg, n=9): 15±2%
increase in HR (peak) from baseline (conscious dogs [3]; regadenoson 5 μg/kg IV without caffeine, baseline 80±4 beats/min, n=9): 114±14%
decrease in LVSP (peak) from baseline (conscious dogs [3]; regadenoson 5 μg/kg IV without caffeine, baseline 139±5 mm Hg, n=8): 9±1%
increase in LV dP/dtMax (peak) from baseline (conscious dogs [3]; regadenoson 5 μg/kg IV, baseline 3240±196 mm Hg/s): 65±7%
